# Test results published in paper PMC11767929 (Molecules, 2025).
# Like-named read-outs stand apart in the source and are kept apart here.
# Assays:
# Assay type in all cases: cell-based
# [1] = system: NHDF-Neo (normal human dermal fibroblast-neonatal cells); assay: MTT cytotoxicity assay, NHDF-Neo healthy cells; conditions: read-out: IC50 NHDF-Neo
# Experimental: (§1) Cytotoxicity screening of the obtained glycoconjugates, their potential metabolites, and substrates used for their synthesis was conducted using the MTT assay.
# (§2) All cells were kept in a humidified incubator at 37 °C in a 5% CO2 atmosphere.
# (§3) Cell viability was assessed by the MTT (3-[4,5–dimethylthiazol-2-yl]-2,5-diphenyltetrazolium bromide) test (ACROS Organics). Stock solutions of tested compounds were prepared in DMSO and stored accordingly.
# (§4) Cells treated with glycoconjugates or potential metabolites were incubated for another 24–72 h (depending on the cell line). Subsequently, 50 µL MTT solution (0.5 mg/mL) in RPMI medium without Phenol Red was added to each well. After 3 h of incubation, the MTT solution was removed, and the precipitated formazan was dissolved in 100 µL of DMSO. Finally, the absorbance of the solubilized formazan crystals was measured at the 570 nm wavelength. Each experiment was carried out in three independent iterations with four technical repetitions. […] Cell viability was expressed as:Cell viability (%) = (ODsample − ODblank)/(ODcontrol − ODblank) × 100%.
# [2] = system: MCF-7 (human breast adenocarcinoma cell line); assay: MTT cytotoxicity assay, MCF-7 cells; conditions: for IC50: Homo sapiens, read-out: IC50 MCF-7; for SI (MCF-7): selectivity index: ratio of IC50 NHDF-Neo to IC50 MCF-7
# Experimental: as §1, §2, §3, §4
# [3] = system: HCT 116 (human colorectal cancer cell line); assay: MTT cytotoxicity assay, HCT 116 cells; conditions: for IC50: read-out: IC50 HCT 116; for SI (HCT 116): selectivity index: ratio of IC50 NHDF-Neo to IC50 HCT 116
# Experimental: as §1, §2, §3, §4
# [4] = system: HCT 116 (human colorectal cancer cell line); assay: MTT assay in medium with 20 µM CuCl2, HCT 116 cells; conditions: addition of CuCl2 at 20 µM; for IC50: Homo sapiens, HCT-116, MTT assay, 24 h, read-out: IC50 HCT 116 + Cu2+; for SI (HCT 116) + Cu2+: ratio of IC50 NHDF-Neo to IC50 HCT 116
# Experimental: (§5) Therefore, it seemed reasonable to conduct additional experiments for the glycoconjugates for which the likely mechanism of action is based on the chelation of metal ions. Since copper can be toxic to cells, it was necessary to test the toxicity of different concentrations of copper salt on the proliferation of all cell line types. Cell cultures under standard conditions were treated with copper solutions of various concentrations, and their effect on cell proliferation was verified by the MTT assay. Cells with the non-supplemented medium were used as a reference for 100% cell viability. […] The antiproliferative activities of 8-AQ glycoconjugates were further tested in the presence of the addition of Cu^2+ ions. HCT 116, MCF-7, and NHDF-Neo cells were treated with solutions of glycoconjugates 13–18 in a culture medium supplemented with 20 µM copper chloride, and their proliferation was measured using the MTT assay. The control consisted of cells cultured in a medium with the same concentration of copper salt added. […] This effect was more pronounced for the MCF-7 cell line (Figure 2). A significant decrease in MCF-7 cell proliferation was observed after treatment with glycoconjugates at concentrations of 100 µM and 50 µM in the presence of Cu^2+ compared to treatment with glycoconjugates alone (cell viability 2–23% and 6–79%, respectively, for each glycoconjugate concentration).
# (§6) Cells were seeded in 96-well plates at a concentration of 1 × 10^4 (HCT 116, NHDF-Neo) or 5 × 10^3 (MCF-7) per well. Cell cultures were incubated for 24 h at 37 °C in a humidified atmosphere with 5% CO2. The culture medium was then removed and replaced with 100 µL of the tested compounds solution at varying concentrations (from 25 µM to 200 µM) in the medium with the addition of CuCl2. The final concentration of CuCl2 was 20 µM in each well. Following 24 or 72 h of incubation, the MTT assay was performed to assess cell viability.
# [5] = system: NHDF-Neo (normal human dermal fibroblast-neonatal cells); assay: MTT assay in medium with 20 µM CuCl2, NHDF-Neo cells; conditions: addition of CuCl2 at 20 µM, 24 h, read-out: IC50 NHDF-Neo + Cu2+
# Experimental: as §5, §6
# [6] = system: MCF-7 (human breast adenocarcinoma cell line); assay: MTT assay in medium with 20 µM CuCl2, MCF-7 cells; conditions: for IC50: Homo sapiens, MCF7, MTT assay, 72 h, read-out: IC50 MCF-7 + Cu2+; for IC50 / SI (MCF-7) + Cu2+: addition of CuCl2 at 20 µM; for SI (MCF-7) + Cu2+: ratio of IC50 NHDF-Neo to IC50 MCF-7; for increase of cytotoxicity in the presence of Cu(II) ions versus without copper: MCF-7 cells, 20 µM CuCl2
# Experimental: as §5, §6
# [7] = MTT assay, incubation time 24 h
# [8] = MCF7, MTT assay, incubation time 72 h
# [9] = Homo sapiens, HCT-116, 24 h, MTT assay, incubation time 24 h
Structure (SMILES),"IC50 [1, 7]","IC50 [2, 8]","IC50 [3, 9]",SI (MCF-7) [2],SI (HCT 116) [3],other results
"Nc1cccc2cccnc12 [Compound 1, 8-Aminoquinoline, reference compound]",,,,,,"IC50 ([1]; 24 h): > 800 µM; IC50 ([2]; MCF7, 72 h): > 400 µM; IC50 ([3]; Homo sapiens, HCT-116, 24 h): > 800 µM"
"CC(=O)OC[C@H]1O[C@@H](N=[N+]=[N-])[C@H](OC(C)=O)[C@@H](OC(C)=O)[C@H]1OC(C)=O [Compound 8, 2,3,4,6-tetra-O-acetyl-β-D-galactopyranosyl azide]",> 800 µM,> 800 µM,> 800 µM,,,
"C#CCO[C@@H]1O[C@H](COC(C)=O)[C@@H](OC(C)=O)[C@H](OC(C)=O)[C@H]1OC(C)=O [Compound 11, propargyl 2,3,4,6-tetra-O-acetyl-β-D-glucopyranoside]",> 800 µM,> 800 µM,> 800 µM,,,
"CC(=O)OC[C@H]1O[C@@H](OCCN=[N+]=[N-])[C@H](OC(C)=O)[C@@H](OC(C)=O)[C@H]1OC(C)=O [Compound 10, 2-azidoethyl 2,3,4,6-tetra-O-acetyl-β-D-galactopyranoside]",> 800 µM,> 800 µM,> 800 µM,,,
OCCn1cc(CNc2cccc3cccnc23)nn1 [Compound 19],> 800 µM,116 ± 2.7 µM,,>6.9,>1.2,
CC(=O)OC[C@H]1O[C@@H](OCc2cn(CCCNc3cccc4cccnc34)nn2)[C@H](OC(C)=O)[C@@H](OC(C)=O)[C@@H]1OC(C)=O [Compound 17],416 ± 12.4 µM,78.1 ± 9.3 µM,116 ± 5.9 µM,5.3,3.6,IC50 [4]: 71.9 ± 1.7 µM; SI (HCT 116) + Cu2+ [4]: >2.8; CC50 [5]: > 200 µM; IC50 [6]: 34.8 ± 0.7 µM; SI (MCF-7) + Cu2+ [6]: >5.7
"CC(=O)OC[C@H]1O[C@@H](OCCN=[N+]=[N-])[C@H](OC(C)=O)[C@@H](OC(C)=O)[C@@H]1OC(C)=O [Compound 9, 2-azidoethyl 2,3,4,6-tetra-O-acetyl-β-D-glucopyranoside]",> 800 µM,> 800 µM,> 800 µM,,,
"OCc1cn(CCCOc2cccc3cccnc23)nn1 [Compound 20a, reference compound]",> 800 µM,602.9 ± 1.9 µM,> 800 µM,>1.3,,
CC(=O)OC[C@H]1O[C@@H](OCCn2cc(CNc3cccc4cccnc34)nn2)[C@H](OC(C)=O)[C@@H](OC(C)=O)[C@H]1OC(C)=O [Compound 16],> 800 µM,227 ± 6.3 µM,227 ± 6.3 µM,,>2.7,"IC50 [4]: 70.8 ± 3.9 µM; SI (HCT 116) + Cu2+ [4]: >2.8; CC50 [5]: > 200 µM; IC50 [6]: 31.8 ± 4.9 µM; increase of cytotoxicity in the presence of Cu(II) ions versus without copper [6]: approximately six-fold; SI (MCF-7) + Cu2+ [6]: >6.3; IC50 [3, 7]: 290 ± 9.7 µM"
"CC(=O)OC[C@H]1O[C@@H](n2cc(COc3cccc4cccnc34)nn2)[C@H](OC(C)=O)[C@@H](OC(C)=O)[C@@H]1OC(C)=O [Compound 13a, reference compound]",57.4 ± 3.2 µM,57.7 ± 3.3 µM,69 ± 2.5 µM,1.0,0.8,
"CC(=O)OC[C@H]1O[C@@H](N=[N+]=[N-])[C@H](OC(C)=O)[C@@H](OC(C)=O)[C@@H]1OC(C)=O [Compound 7, 2,3,4,6-tetra-O-acetyl-β-D-glucopyranosyl azide]",> 800 µM,> 800 µM,> 800 µM,,,
"OCc1cn(CCCNc2cccc3cccnc23)nn1 [Compound 20, 4-Hydroxymethyl-1-(8-quinolinylaminopropyl)-1H-1,2,3-triazol]",> 800 µM,150 ± 1.8 µM,329 ± 5.4 µM,>5.3,>2.4,
"CC(=O)OC[C@H]1O[C@@H](n2cc(COc3cccc4cccnc34)nn2)[C@H](OC(C)=O)[C@@H](OC(C)=O)[C@H]1OC(C)=O [Compound 14a, reference compound]",31.9 ± 1.6 µM,4.1 ± 0.03 µM,22.7 ± 1.6 µM,7.8,1.4,
"C#CCO[C@@H]1O[C@H](COC(C)=O)[C@H](OC(C)=O)[C@H](OC(C)=O)[C@H]1OC(C)=O [Compound 12, propargyl 2,3,4,6-tetra-O-acetyl-β-D-galactopyranoside]",> 800 µM,> 800 µM,> 800 µM,,,
CC(=O)OC[C@H]1O[C@@H](n2cc(CNc3cccc4cccnc34)nn2)[C@H](OC(C)=O)[C@@H](OC(C)=O)[C@H]1OC(C)=O [Compound 14],> 800 µM,204.2 ± 1.4 µM,282 ± 20.7 µM,>3.9,>2.8,IC50 [4]: 87.1 ± 15.9 µM; CC50 [5]: > 200 µM; IC50 [6]: 34.7 ± 5 µM; increase of cytotoxicity in the presence of Cu(II) ions versus without copper [6]: approximately six-fold; SI (MCF-7) + Cu2+ [6]: >5.8
"[N-]=[N+]=NCCCNc1cccc2cccnc12 [Compound 5, N-(3-azidopropyl)quinolin-8-amine]",415 ± 10.6 µM,47.1 ± 8.49 µM,115 ± 13.4 µM,,,
"[N-]=[N+]=NCCCOc1cccc2cccnc12 [Compound 6, 8-(3-azidopropoxy)quinoline]",,,,,,IC50 ([1]; 24 h): 782 ± 8.7 µM
CC(=O)OC[C@H]1O[C@@H](OCc2cn(CCCNc3cccc4cccnc34)nn2)[C@H](OC(C)=O)[C@@H](OC(C)=O)[C@H]1OC(C)=O [Compound 18],585 ± 7.1 µM,96.8 ± 6 µM,182 ± 15.6 µM,6.0,3.2,IC50 [4]: 43.4 ± 2.4 µM; SI (HCT 116) + Cu2+ [4]: >4.6; CC50 [5]: > 200 µM; IC50 [6]: 35.4 ± 0.1 µM; SI (MCF-7) + Cu2+ [6]: >5.6
"C#CCNc1cccc2cccnc12 [Compound 3, N-(prop-2-yn-1-yl)quinolin-8-amine]",> 800 µM,295 ± 8.49 µM,550 ± 16.4 µM,,,
CC(=O)OC[C@H]1O[C@@H](OCCn2cc(CNc3cccc4cccnc34)nn2)[C@H](OC(C)=O)[C@@H](OC(C)=O)[C@@H]1OC(C)=O [Compound 15],> 800 µM,103 ± 5.7 µM,284.2 ± 2.3 µM,>7.8,>2.8,IC50 [4]: 80.5 ± 2.2 µM; SI (HCT 116) + Cu2+ [4]: >2.5; CC50 [5]: > 200 µM; IC50 [6]: 34.1 ± 5 µM; SI (MCF-7) + Cu2+ [6]: >5.9
"Oc1cccc2cccnc12 [Compound 2, 8-hydroxyquinoline, reference compound]",,,,3.1,1,"IC50 ([1]; 24 h): 9.34 ± 0.25 µM; IC50 ([2]; MCF7, 72 h): 3.01 ± 0.05 µM; IC50 ([3]; Homo sapiens, HCT-116, 24 h): 9.33 ± 0.22 µM"
"OCCn1cc(COc2cccc3cccnc23)nn1 [Compound 19a, reference compound]",> 800 µM,> 800 µM,> 800 µM,,,
CC(=O)OC[C@H]1O[C@@H](n2cc(CNc3cccc4cccnc34)nn2)[C@H](OC(C)=O)[C@@H](OC(C)=O)[C@@H]1OC(C)=O [Compound 13],> 800 µM,> 800 µM,> 800 µM,,,IC50 [4]: 118 ± 5 µM; SI (HCT 116) + Cu2+ [4]: >1.7; CC50 [5]: > 200 µM; IC50 [6]: 71.3 ± 4.5 µM; increase of cytotoxicity in the presence of Cu(II) ions versus without copper [6]: more than ten times; SI (MCF-7) + Cu2+ [6]: >2.8
